Test results taken from patent publication EP3628044B1, “PYRROLO[2,3-C]PYRIDINES AND RELATED ANALOGS AS LSD-1 INHIBITORS” (The Regents of The University of Michigan, priority 2017, dated 2018).

Molecular target: T1, Human recombinant LSD1 protein (Homo sapiens, UniProt O60341)
T1 construct: purchased Active Motif (Carlsbad, CA); host or cells: E. coli
Assay: LSD1 enzymatic activity assay (AlphaLISA, Biotin-H3K4Me peptide substrate)
Assay type: biochemical
Details: 4 nM LSD1, 80 nM Biotin-H3K4Me peptide substrate, 1% DMSO, compounds tested as the TFA salt
Protocol: Human recombinant LSD1 protein expressed in E. coli cells was purchased from Active Motif (Carlsbad, CA). Biotin-labeled Histone H3K4Me peptide (residues 1-21 with Lys 4 monomethylated) substrate was purchased from Anaspec (Fremont, CA). Enzymatic activity was assessed using the AlphaLISA technology from Perkin Elmer Life Sciences (Waltham, MA). 2.5 µL of compound solution and 5 µL of LSD1 solutions in the assay buffer (50mM Tris, pH 9.0, 50mM NaCl with 0.01% Tween20 and 1mM DTT added right before the assay) were added into a white low volume 384 well microtiter plate. This mixture solution was incubated for 15 minutes with gentle shaking at room temperature. Demethylation reaction was initiated by adding 2.5 µL of Biotin-H3K4Me peptide substrate solution in the assay buffer. Final concentrations of LSD1, Biotin-H3K4Me peptide substrate, and DMSO were 4 nM, 80 nM, and 1%, respectively. […] Plates were read on a BMG CLARIOStar multimode plate reader from BMG Labtech (Ortenberg, Germany) with an excitation wavelength of 680 nm and emission wavelength of 615 nm. IC50 values of inhibitors were obtained by fitting the fluorescence intensity vs inhibitor concentrations in a sigmoidal dose-response curve (variable slope) with a non-linear regression using Prism 7 (La Jolla, CA). […]

Row | SMILES | IC50 [nM]
1 | CN(C)c1ccc(-c2ncc3c(ccn3CC3CCNCC3)c2-c2ccc(C#N)cc2)cc1 [compound 85, 4-(5-(4-(dimethylamino)phenyl)-1-(piperidin-4-ylmethyl)-1H-pyrrolo[2,3-c]pyridin-4-yl)benzonitrile] | 23.1
